Entries after “also recorded” stand apart in the source; their conditions may differ.
System: Sprague-Dawley rats (preference for drug-paired white chamber)
Test: Conditioned Place Preference (CPP) conditioning and addiction with amphetamine, exploration on day 4 of withdrawal
Format: in vivo, male Sprague-Dawley rats
Description: A three (3) chambered CPP apparatus, measuring 75 cm×30 cm×25 cm, was employed. The single black, white and grey chambers could each be isolated from the other by a sliding door on either side of the central grey chamber. […] The floor of the white chamber was covered with shiny transparent Perspex; while the floor of the black chamber was covered with wire mesh and sawdust, creating two contrasting chambers with distinct visual and tactile cues, representing a biased paradigm. The apparatus was thoroughly cleaned with a dilute solution of disinfectant upon completion of exploration by each rat.
Twenty four (24), three (3) month old male Sprague-Dawley rats, weighing approximately 250-350 g each, were obtained from the University of the West Indies Faculty of Medical Sciences Animal House following ethical approval of the protocol by the FMS/UHWI/UWI Ethics Committee, on the Mona Campus of the University of the West Indies. Animals were housed in pairs, in a normal twelve (12) hour light: dark cycle and fed food and water ad libitum.
Phase 1: Pre-conditioning, selection and first group assignments: Animals were selected for inclusion in the experiment via pre-conditioning. They were allowed an initial twenty (20) minute exploration of the CPP apparatus, and scores of chamber entries and time counted from a video recording. Animals displaying ≥80% preference for the dark CPP chamber during pre-conditioning were selected and randomly assigned to one of two treatment groups, AMP or SAL, each containing twelve animals.
Phase 2: Conditioning: During the conditioning phase, rats assigned to the amphetamine treatment group (Group AMP) received 1 ml of amphetamine hydrochloride (sigma) dissolved in 0.9% saline, providing 5 mg/kg intraperitoneally (i.p.). Rats in Group SAL were given 1 ml of physiological saline intraperitoneally.
Conditioning consisted of 8 days of daily, group-assigned intraperitoneal injection and then immediate, individual confinement to the white, ‘aversive’ chamber for thirty (30) minutes. […]
Phase 3: Amphetamine addiction and drug withdrawal: On day 9, the addiction phase ensued, with a six (6) day period of exposure to a daily increasing amphetamine dose for the drug treated (Group AMP) animals. […] During this period, the number of entries made into each chamber and the time spent in each chamber were recorded for all rats via scores from video recordings of exploration.
All the resulting data were analyzed, using the SPSS 19 software. The mean percent time and entries into the white CPP chamber by each animal were scored from video recordings. […]

[1] = Groups AMP-S and AMP-N, amphetamine 5-7 mg/kg i.p., t-test, p<0.001, hydrochloride

CC(N)Cc1ccccc1.Cl (stereo not shown) [Amphetamine, amphetamine hydrochloride]
percent time in the drug-paired white chamber during withdrawal versus saline treated groups (AMP-S and AMP-N combined n=12 versus SAL-S and SAL-N, p<0.01): significantly increased
percent entries into the drug-paired white chamber during withdrawal versus saline treated groups (AMP-S and AMP-N versus SAL-S and SAL-N, p<0.01): significantly higher
percent entries into the drug-paired white chamber during withdrawal versus pre-conditioning [1]: significantly more entries; also recorded: significantly increased
percent time in the drug-paired white chamber during withdrawal versus pre-conditioning [1]: significantly more time; also recorded: significantly increased

Source: US20220339204A1, “METHOD AND COMPOSITION FOR AM[…] SEEKING BEHAVIOR” (priority 2018, published 2022)
